Assay results as given in patent US6384019B1, “Gemcitabine derivatives” (Norsk Hydro ASA, priority 1997, dated 2002).
Where “and” joins values, the source holds several entries; their conditions need not be identical. Equal values may be shown once. Read-outs that look alike come from different tables or passages of the source.

What was measured:
[1] = tested on: human ovarian tumour line A2780; assay: Cytotoxicity, continuous drug exposure 72 hours, SRB assay; type: cell-based
Excerpt: (§1) The cytoxicity activity of Gemcitabine-N^4-elaidic amide and Gemcitabine-5′-elaidic ester were investigated in 2 pairs of rodent and human tumour cell lines, each consisting of a parent line and a subline either resistant or cross-resistant to Gemcitabine.
(§2) The cell lines were the human ovarian tumour line A2780 and subline AG6000 which is resistant to Gemcitabine and has a deficiency of deoxycytidine kinase, and the murine colon tumour line C26A and the subline C26G with no altered deoxycytidine kinase but a 10-fold decrease in thymidine kinase I. The cytotoxicity of each compound was evaluated following continuous drug exposure for 72 hours. The cell numbers were determined by SRB assay, and percentage growth inhibition was calculated for each tumour line as IC50 value, given in μM, that is the concentration of the compound giving rise to a 50% growth inhibition compared to control.

[2] = tested on: murine colon tumour line C26A; assay: as above; type: cell-based; conditions: 72 hours continuous exposure, read-out: IC50 cytotoxicity C26-A
Excerpt: as §1, §2

[3] = tested on: murine lymphatic leukaemia P 388 cells; assay: P-388 ip in mice, single or repeated doses; type: in vivo
Excerpt: (§3) The anti tumour effect of Gemcitabine-N^4-elaidic amide or Gemcitabine-5′-elaidic ester were investigated in-vivo in mice in two different tumour types, both with single and repeated dosing
B6D2F1 female mice were implanted with the murine lymphatic leukaemia P 388 cells intraperitoneally. Treatments were initiated on day 1 post implantation of cells intraperitoneally. […] Single dose treatment with Gemcitabine-5′-elaidic ester was effective with prolonged survival time and long term survivor observed compared to the same dose of Gemcitabine.

[4] = tested on: murine colon cancer Co-26; assay: Co-26 inoculated intrasplenic to mice, intraperitoneal treatment; type: in vivo
Method: as §3
Balb/c female mice were inoculated with the murine colon cancer Co-26 in the spleen on day 0. In this model, tumours develop mainly in the liver. Intraperitoneal treatment was started on day 1. Single doses of the compounds were tested in comparison with Gemcitabine at single dose. Saline was used as control.
In parallel experiment, dosing was repeated on days 1-11

[5] = tested on: subline AG6000 (resistant to Gemcitabine, deficiency of deoxycytidine kinase); assay: Cytotoxicity, continuous drug exposure 72 hours, SRB assay; type: cell-based, human
Excerpt: as §1, §2

CEM cells = assay: Cytostatic activity in CEM cells with and without nucleoside transport modifiers; type: cell-based; conditions: for Rise in IC50 with the addition of NT inhibitors: with versus without NT inhibitors
Method: The cytostatic activity of gemcitabine and gemcitabine-5′-elaidic acid ester in CEM cells was determined with and without the nucleoside transport modifiers Nitrobenzylthioinosine (NBMPR) or Persantine (Pyridamole). […] With the addition of NT inhibitors, there is a ten-fold rise in the IC50 gemcitabine values, while the IC50 gemcitabine-5′-elaidic acid ester is little affected (1.3-1.5 increase).

[6] = cited from earlier work
subline C26G = assay: Cytotoxicity, continuous drug exposure 72 hours, SRB assay; type: cell-based, murine; conditions: 72 hours continuous exposure, read-out: IC50 cytotoxicity C2G-G
Excerpt: as §1, §2

[7] = P-388, repeated dose days 1-4, 15 Mg/kg
[8] = P-388, repeated dose days 1-11, 1 mg/kg
[9] = P-388, repeated dose days 1-11, 4 mg/kg
[10] = P-388, single dose treatment, 75 mg/kg
[11] = Co-26, repeated dosing days 1-11, 1 mg/kg
[12] = Co-26, repeated dosing days 1-11, 4 mg/kg
[13] = Co-26, single dose ip day 1, 75 mg/kg
[14] = Co-26, single dose ip day 1, 100 mg/kg
[15] = P-388, single dose treatment, 100 mg/kg
[16] = P-388, repeated dose days 1-4, 1 Mg/kg
[17] = P-388, repeated dose days 1-4, 4 Mg/kg
[18] = Co-26, single dose ip day 1, 25 mg/kg

Compound | Long term survivors (>45 d) [3, 8] | Mean survival time T/C [3, 8] [%] | Toxic deaths [3, 8] | Long term survivors (>45 d) [3, 9] | Mean survival time T/C [3, 9] [%] | Toxic deaths [3, 9] | Long term survivors (>35 d) [3, 10] | Mean survival time T/C [3, 10] [%] | Toxic deaths [3, 10] | Long term survivors (>46 d) [4, 11] | Mean survival time T/C [4, 11] [%] | Toxic deaths [4, 11] | Long term survivors (>46 d) [4, 12] | Mean survival time T/C [4, 12] | Toxic deaths [4, 12] | Long term survivors (>35 d) [4, 13] | Mean survival time T/C [4, 13] [%] | Toxic deaths [4, 13] | Long term survivors (>35 d) [4, 14] | Mean survival time T/C [4, 14] [%] | further results
Nc1ccn([C@@H]2O[C@H](CO)[C@@H](O)C2(F)F)c(=O)n1 [Gemcitabine, 2′,2′-difluoro-deoxycytidine] |  0/6 | 178.8 |  0/6 |  0/6 | 71.9 | 6/6 |  0/6 | 138.9 |  0/7 |  2/8 | 170.6 | ⅛ |  0/8 | toxic |  8/8 |  2/7 | 132.8 |  0/7 |  4/7 | 116.2 | IC50 ([1]; Homo sapiens, A2780, 72 hours continuous exposure): 0.0005 µM; IC50 ([2]; Mus musculus): 0.0055 µM; Long term survivors (>35 d) [3, 7]:  0/6; Mean survival time T/C [3, 7]: 58.0%; Toxic deaths [3, 7]: all animals died of toxicity and  6/6; Toxic deaths [4, 14]:  0/7; IC50 ([5]; Homo sapiens, AG6000, 72 hours continuous exposure): 100 µM; Rise in IC50 with the addition of NT inhibitors (CEM cells; CEM cells): ten-fold rise; IC50 (CEM cells; Homo sapiens, CCRF-CEM, read-out: IC50 Persantine 4 μg/ml): 1.26 ± 0.04 µM; IC50 (CEM cells; Homo sapiens, CCRF-CEM, CEM cells, NBMPR 100 μM, read-out: IC50 NBMPR 100 μM): 1.11 ± 0.08 µM; IC50 (CEM cells; Homo sapiens, CCRF-CEM, CEM cells, no inhibitor, read-out: IC50 No inhibitor): 0.11 ± 0.01 µM; Plasma concentration that inhibits the anti-cancer effect (saturation of the phosphorylation mechanism) [6]: above 35 μM; Plasma concentration with optimal effect [6]: about 20 μM; IC50 (subline C26G; Mus musculus): 0.0075 µM
CCCCCCCC/C=C/CCCCCCCC(=O)OC[C@H]1O[C@@H](n2ccc(N)nc2=O)C(F)(F)[C@@H]1O [Gemcitabine-5′-elaidic ester, Elaidic Acid (5′)-Gemcitabine Ester] |  0/6 | 317.0 |  0/6 |  2/6 | 220.6 |  0/6 | ⅙ | 186.3 |  0/6 | ⅛ | 150.6 |  0/8 | ⅜ | 166.9% |  2/8 |  1/7 | 128.6 |  0/7 |  4/7 | 100.1 | IC50 ([1]; 72 hours continuous exposure): < 0.0001 µM; IC50 [2]: 0.0003 µM; Long term survivors (>35 d) [3, 15]:  0/6; Mean survival time T/C [3, 15]: 138.9%; Toxic deaths [3, 15]:  0/6; Toxic deaths [4, 14]:  0/7; IC50 ([5]; 72 hours continuous exposure): 100 µM; IC50 (CEM cells; CEM cells, NBMPR 100 μM, read-out: IC50 NBMPR 100 μM): 0.072 ± 0.034 µM; IC50 (CEM cells; CEM cells, Persantine 4 μg/ml, read-out: IC50 Persantine 4 μg/ml): 0.065 ± 0.023 µM; IC50 (CEM cells; CEM cells, no inhibitor, read-out: IC50 No inhibitor): 0.047 ± 0.006 µM; Potency relative to the mother drug in the "resistant" situation (CEM cells; CEM cells, with NT inhibitors, versus gemcitabine): 15-20 fold; Rise in IC50 with the addition of NT inhibitors (CEM cells; CEM cells): 1.3-1.5 fold; IC50 (subline C26G): 0.0005 µM
CCCCCCCC/C=C/CCCCCCCC(=O)Nc1ccn(C2OC(CO)C(O)C2(F)F)c(=O)n1 (centres unmarked) [Gemcitabine-N^4-elaidic amide, Elaidic Acid (N^4)-Gemcitabine Amide] | ⅙ | 172.5 |  0/6 |  0/6 | 215.7 |  0/6 |  |  |  |  2/8 | 155 |  0/8 | ⅛ | 185.6% |  0/8 |  |  |  |  |  | IC50 ([1]; 72 hours continuous exposure): < 0.0001 µM; IC50 [2]: < 0.0001 µM; Long term survivors (>35 d) [3, 16]:  2/6; Mean survival time T/C [3, 16]: 178%; Toxic deaths [3, 16]:  0/6; Long term survivors (>35 d) [3, 17]: ⅙; Mean survival time T/C [3, 17]: 183%; Toxic deaths [3, 17]:  0/6; Long term survivors (>35 d) [4, 18]: 5/8 and ⅝; Mean survival time T/C [4, 18]: 103.7%; Toxic deaths [4, 18]: ⅛; IC50 ([5]; 72 hours continuous exposure): 35 µM; IC50 (subline C26G): < 0.0001 µM
